Where a name gives a salt, the structure may show the parent alone.
target: T1, FAAH (Homo sapiens, UniProt O00519); assay: Assay Method 1: human FAAH assay (3H-anandamide hydrolysis in cell homogenate); format: biochemical; design: expressed in transfected cells; host or cells: SK-N-MC cells stably transfected with human FAAH cDNA (G418 selection); alternatively T84 cell pellets; details: read-out: Assay 1 IC50
T1 sequence (O00519 1-579): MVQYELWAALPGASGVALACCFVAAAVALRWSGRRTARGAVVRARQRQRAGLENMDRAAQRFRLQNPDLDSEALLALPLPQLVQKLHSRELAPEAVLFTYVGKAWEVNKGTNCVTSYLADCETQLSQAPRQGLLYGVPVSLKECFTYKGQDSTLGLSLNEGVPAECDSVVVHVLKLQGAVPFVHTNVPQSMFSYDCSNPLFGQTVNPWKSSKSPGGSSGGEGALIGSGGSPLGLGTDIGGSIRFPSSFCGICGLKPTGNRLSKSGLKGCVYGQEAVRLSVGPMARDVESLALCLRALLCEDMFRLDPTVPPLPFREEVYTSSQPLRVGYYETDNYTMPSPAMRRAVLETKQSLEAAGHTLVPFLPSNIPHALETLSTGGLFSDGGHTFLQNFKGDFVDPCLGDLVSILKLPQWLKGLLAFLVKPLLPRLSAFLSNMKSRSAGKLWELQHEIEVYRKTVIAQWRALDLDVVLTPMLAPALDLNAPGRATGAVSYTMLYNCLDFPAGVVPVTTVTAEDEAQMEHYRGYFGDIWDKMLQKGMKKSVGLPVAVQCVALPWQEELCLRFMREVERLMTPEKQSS
Description: A. Transfection of Cells with Human FAAH
A 10-cm tissue culture dish with a confluent monolayer of SK-N-MC cells was split 2 days (d) prior to transfection. Using sterile technique, the media was removed and the cells were detached from the dish by the addition of trypsin. One fifth of the cells were then placed onto a new 10-cm dish. Cells were grown in a 37° C. incubator with 5% CO2 in Minimal Essential Media Eagle with 10% Fetal Bovine Serum. After 2 d, cells were approximately 80% confluent. These cells were removed from the dish with trypsin and pelleted in a clinical centrifuge. The pellet was re-suspended in 400 μL complete media and transferred to an electroporation cuvette with a 0.4 cm gap between the electrodes. Supercoiled human FAAH cDNA (1 μg) was added to the cells and mixed. The voltage for the electroporation was set at 0.25 kV, and the capacitance was set at 960 μF. After electroporation, the cells were diluted into complete media (10 mL) and plated onto four 10-cm dishes. Because of the variability in the efficiency of electroporation, four different concentrations of cells were plated. […] The cells were allowed to recover for 24 h before adding the selection media (complete media with 600 μg/mL G418). After 10 d, dishes were analyzed for surviving colonies of cells. Dishes with well-isolated colonies were used. Cells from individual colonies were isolated and tested.
T84 frozen cell pellets or transfected SK-N-MC cells (contents of 1×15 cm culture dishes) were homogenized in 50 mL of FAAH assay buffer (125 mM Tris, 1 mM EDTA, 0.2% Glycerol, 0.02% Triton X-100, 0.4 mM Hepes, pH 9). The assay mixture consisted of 50 μL of the cell homogenate, 10 μL of the test compound, and 40 μL of anandamide [1-^3H-ethanolamine] (^3H-AEA, Perkin-Elmer, 10.3 Ci/mmol), which was added last, for a final tracer concentration of 80 nM. The reaction mixture was incubated at rt for 1 h. During the incubation, 96-well Multiscreen filter plates (catalog number MAFCNOB50; Millipore, Bedford, Mass., USA) were loaded with 25 of activated charcoal (Multiscreen column loader, catalog number MACL09625, Millipore) and washed once with 100 μL of MeOH. Also during the incubation, 96-well DYNEX MicroLite plates (catalog number NL510410) were loaded with 100 μL of MicroScint40 (catalog number 6013641, Packard Bioscience, Meriden, Conn., USA). After the 1 h incubation, 60 μL of the reaction mixture were transferred to the charcoal plates, which were then assembled on top of the DYNEX plates using Centrifuge Alignment Frames (catalog number MACF09604, Millipore). The unbound labeled ethanolamine was centrifuged through to the bottom plate (5 min at 2000 rpm), which was preloaded with the scintillant, as described above. The plates were sealed and left at rt for 1 h before counting on a Hewlett Packard TopCount.
Compounds were tested in free base or trifluoroacetic acid salt forms.

IC50	Compound
> 10 µM	O=C(Nc1cccnc1)N1CC2(CCN(Cc3ccccc3O)CC2)C1 [Example 107, 7-(2-hydroxybenzyl)-N-(pyridin-3-yl)-2,7-diazaspiro[3.5]nonane-2-carboxamide]
0.5 µM	O=C(Nc1cnc2[nH]ccc2c1)N1CC2(CCN(Cc3ccc4c(c3)OC(F)(F)O4)CC2)C1 [Example 89, 7-(2,2-Difluoro-benzo[1,3]dioxol-5-ylmethyl)-2,7-diaza-spiro[3.5]nonane-2-carboxylic acid (1H-pyrrolo[2,3-b]pyridin-5-yl)-amide]
8 µM	O=C(Nc1cccnc1)N1CC2(CCN(Cc3cccc(Oc4ccc(OCC(F)(F)F)cc4)c3)CC2)C1 [Example 128, 7-{3-[4-(2,2,2-Trifluoro-ethoxy)-phenoxy]-benzyl}-2,7-diaza-spiro[3.5]nonane-2-carboxylic acid pyridin-3-ylamide]
9 µM	O=C(Nc1cccnc1)N1CCC2(CCCN2Cc2cccc(Oc3ccc(Cl)cc3)c2)C1 (stereo not drawn) [Example 7, 1-[3-(4-Chloro-phenoxy)-benzyl]-1,7-diaza-spiro[4.4]nonane-7-carboxylic acid pyridin-3-ylamide]

target: T2, Rat FAAH (Rattus norvegicus, UniProt P97612); assay: Assay Method 2: rat FAAH assay (3H-anandamide hydrolysis in cell homogenate); format: biochemical; details: read-out: Assay 2 IC50
T2 construct: expressed in transfected cells; host or cells: SK-N-MC cells stably transfected with rat FAAH cDNA (G418 selection)
T2 sequence (P97612 1-579): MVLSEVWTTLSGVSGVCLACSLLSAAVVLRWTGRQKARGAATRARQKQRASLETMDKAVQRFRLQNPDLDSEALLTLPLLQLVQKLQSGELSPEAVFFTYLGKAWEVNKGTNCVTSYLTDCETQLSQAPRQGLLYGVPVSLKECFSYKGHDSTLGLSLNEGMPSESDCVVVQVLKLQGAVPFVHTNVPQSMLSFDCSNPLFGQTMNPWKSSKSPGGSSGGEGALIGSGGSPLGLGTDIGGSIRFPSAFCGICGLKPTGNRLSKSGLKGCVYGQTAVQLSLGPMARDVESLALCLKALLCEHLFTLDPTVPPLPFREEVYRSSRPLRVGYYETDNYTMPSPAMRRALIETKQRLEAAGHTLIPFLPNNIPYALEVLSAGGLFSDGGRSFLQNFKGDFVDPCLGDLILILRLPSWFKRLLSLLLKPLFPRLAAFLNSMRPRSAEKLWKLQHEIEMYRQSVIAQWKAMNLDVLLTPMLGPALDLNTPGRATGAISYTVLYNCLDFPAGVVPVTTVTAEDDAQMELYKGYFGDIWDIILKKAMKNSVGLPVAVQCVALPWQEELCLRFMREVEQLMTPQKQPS
Description: A. Transfection of Cells with Rat FAAH A 10-cm tissue culture dish with a confluent monolayer of SK-N-MC cells was split 2 days (d) prior to transfection. Using sterile technique, the media was removed and the cells were detached from the dish by the addition of trypsin. One fifth of the cells were then placed onto a new 10-cm dish. Cells were grown in a 37° C. incubator with 5% CO2 in Minimal Essential Media Eagle with 10% Fetal Bovine Serum. After 2 d, cells were approximately 80% confluent. These cells were removed from the dish with trypsin and pelleted in a clinical centrifuge. The pellet was re-suspended in 400 μL complete media and transferred to an electroporation cuvette with a 0.4 cm gap between the electrodes. Supercoiled rat FAAH cDNA (1 μg) was added to the cells and mixed. The voltage for the electroporation was set at 0.25 kV, and the capacitance was set at 960 μF. After electroporation, the cells were diluted into complete media (10 mL) and plated onto four 10-cm dishes. Because of the variability in the efficiency of electroporation, four different concentrations of cells were plated. The ratios used were 1:20, 1:10, and 1:5, with the remainder of the cells being added to the fourth dish. The cells were allowed to recover for 24 h before adding the selection media (complete media with 600 μg/mL G418). After 10 d, dishes were analyzed for surviving colonies of cells. Dishes with well-isolated colonies were used. Cells from individual colonies were isolated and tested. […] B. FAAH Assay T84 frozen cell pellets or transfected SK-N-MC cells (contents of 1×15 cm culture dishes) were homogenized in 50 mL of FAAH assay buffer (125 mM Tris, 1 mM EDTA, 0.2% Glycerol, 0.02% Triton X-100, 0.4 mM Hepes, pH 9). […] The reaction mixture was incubated at rt for 1 h. During the incubation, 96-well Multiscreen filter plates (catalog number MAFCNOB50; Millipore, Bedford, Mass., USA) were loaded with 25 of activated charcoal (Multiscreen column loader, catalog number MACL09625, Millipore) and washed once with 100 μL of MeOH. Also during the incubation, 96-well DYNEX MicroLite plates (catalog number NL510410) were loaded with 100 μL of MicroScint40 (catalog number 6013641, Packard Bioscience, Meriden, Conn., USA). After the 1 h incubation, 60 μL of the reaction mixture were transferred to the charcoal plates, which were then assembled on top of the DYNEX plates using Centrifuge Alignment Frames (catalog number MACF09604, Millipore). The unbound labeled ethanolamine was centrifuged through to the bottom plate (5 min at 2000 rpm), which was preloaded with the scintillant, as described above. The plates were sealed and left at rt for 1 h before counting on a Hewlett Packard TopCount. Results for compounds tested in these assays are summarized in Table 1, as an average of results obtained. Compounds were tested in free base or trifluoroacetic acid salt forms. Where activity is shown as greater than (>) a particular value, the value is the solubility limit of the compound in the assay medium or the highest concentration tested in the assay.

IC50	Compound
> 10 µM	O=C(Nc1cccnc1)N1CC2(CCN(Cc3ccccc3O)CC2)C1 [Example 107, 7-(2-hydroxybenzyl)-N-(pyridin-3-yl)-2,7-diazaspiro[3.5]nonane-2-carboxamide]
0.01 µM	O=C(Nc1cnc2ccccc2c1)N1CCCC2(CN(Cc3cccc(Oc4ccc(Cl)cc4)c3)C2)C1 [Example 32, 2-(3-(4-chlorophenoxy)benzyl)-N-(quinolin-3-yl)-2,6-diazaspiro[3.5]nonane-6-carboxamide]
6 µM	O=C(Nc1cccnc1)N1CCCC2(CN(Cc3cccc(Oc4ccc(Cl)cc4)c3)C2)C1 [Example 26, 2-(3-(4-chlorophenoxy)benzyl)-N-(pyridin-3-yl)-2,6-diazaspiro[3.5]nonane-6-carboxamide]
0.02 µM	O=C(Nc1cnc(-c2ccccc2)nc1)N1CC2(CCN(Cc3cccc(Oc4ccc(Cl)cc4)c3)CC2)C1 [Example 83, 7-(3-(4-chlorophenoxy)benzyl)-N-(2-phenylpyrimidin-5-yl)-2,7-diazaspiro[3.5]nonane-2-carboxamide, trifluoroacetic acid salt]
> 10 µM	O=C(Nc1cccnc1)N1CC2(CCN(Cc3ccc(Cl)c(C(F)(F)F)c3)CC2)C1 [Example 109, 7-(4-chloro-3-(trifluoromethyl)benzyl)-N-(pyridin-3-yl)-2,7-diazaspiro[3.5]nonane-2-carboxamide]
> 10 µM	O=C(Nc1cccnc1)N1CC2(CCN(Cc3ccc(C(F)(F)F)cc3)CC2)C1 [Example 102, N-(pyridin-3-yl)-7-(4-(trifluoromethyl)benzyl)-2,7-diazaspiro[3.5]nonane-2-carboxamide]
> 10 µM	O=C(Nc1cccnc1)N1CC2(CCN(Cc3cccc(Cl)c3)CC2)C1 [Example 99, 7-(3-Chloro-benzyl)-2,7-diaza-spiro[3.5]nonane-2-carboxylic acid pyridin-3-ylamide]
> 10 µM	O=C(Nc1cccnc1)N1CC2(CCN(Cc3ccccc3Cl)CC2)C1 [Example 98, 7-(2-Chloro-benzyl)-2,7-diaza-spiro[3.5]nonane-2-carboxylic acid pyridin-3-ylamide]
> 10 µM	O=C(Nc1cccnc1)N1CC2(CCN(Cc3ccc4c(c3)OC(F)(F)O4)CC2)C1 [Example 87, 7-(2,2-Difluoro-benzo[1,3]-dioxol-5-ylmethyl)-2,7-diaza-spiro[3.5]nonane-2-carboxylic acid pyridin-3-ylamide]
> 10 µM	O=C(Nc1ccc(-n2cnnc2)nc1)N1CC2(CCN(Cc3cccc(Oc4ccc(Cl)cc4)c3)CC2)C1 [Example 47, 7-[3-(4-Chloro-phenoxy)-benzyl]-2,7-diaza-spiro[3.5]nonane-2-carboxylic acid (6-[1,2,4]triazol-4-yl-pyridin-3-yl)-amide, trifluoroacetic acid salt]

Compound	IC50
O=C(Nc1nnn[nH]1)N1CC2(CCN(Cc3cccc(Oc4ccc(Cl)cc4)c3)CC2)C1 [Example 51, 7-[3-(4-Chloro-phenoxy)-benzyl]-2,7-diaza-spiro[3.5]nonane-2-carboxylic acid (1H-tetrazol-5-yl)-amide, trifluoroacetic acid salt]	0.2 µM

Source: patent US20120083476A1, “HETEROARYL-SUBSTITUTED SPIROCYCLIC DIAMINE UREA MODULATORS OF FATTY ACID AMIDE HYDROLASE” (Janssen Pharmaceutica NV, priority 2009, published 2012)
